#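 In this assay, cells in 96-well plates receive the compound at five concentrations for 48 hours. Endpoints are linearly interpolated between the surrounding concentrations. The concentration for full growth arrest is given as TGI.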
# Tests used:
# Experiment in all cases: growth of human tumour cells (NCI), 48 h
# [1] = system: HCT-15 colon
# [2] = system: OVCAR-8 ovarian
# [3] = system: SK-MEL-2 melanoma
# [4] = system: MALME-3M melanoma
# [5] = system: SNB-75 CNS
# [6] = system: 786-0 renal
# [7] = system: PC-3 prostate
# [8] = system: SF-268 CNS
# [9] = system: K-562 leukemia
# [10] = system: HOP-62 NSCLC
# [11] = system: HCC-2998 colon
# [12] = system: RPMI-8226 leukemia
# [13] = system: EKVX NSCLC
# [14] = system: NCI/ADR-RES ovarian
# [15] = system: IGROV1 ovarian
# [16] = system: OVCAR-3 ovarian
# [17] = system: U251 CNS
# [18] = system: ACHN renal
# [19] = system: LOX IMVI melanoma
# [20] = system: HCT-116 colon
# [21] = system: SK-MEL-5 melanoma
# [22] = system: MDA-MB-231 breast
# [23] = system: MDA-MB-435
# [24] = system: SF-539 CNS
# [25] = system: KM12 colon
# [26] = system: A498 renal
# [27] = system: SN12C renal
# [28] = system: MOLT-4 leukemia
# [29] = system: UACC-257 melanoma
# [30] = system: MCF7 breast
# [31] = system: SK-OV-3 ovarian
# [32] = system: DU-145 prostate
# [33] = system: OVCAR-4 ovarian
# [34] = system: SW-620 colon
# [35] = system: SF-295 CNS
# [36] = system: COLO 205 colon
# [37] = system: NCI-H460 lung
# [38] = system: T-47D breast
# [39] = system: CAKI-1 renal
# [40] = system: M14 melanoma
# [41] = system: OVCAR-5 ovarian
# [42] = system: SNB-19 CNS
# [43] = system: BT-549 breast
# [44] = system: MDA-N
# [45] = system: HT29 colon
# [46] = system: TK-10 renal
# [47] = system: A549 NSCLC
# [48] = system: HOP-92 NSCLC
# [49] = system: UO-31 renal
# [50] = system: UACC-62 melanoma
# [51] = system: NCI-H522 lung
# [52] = system: HS 578T breast
# [53] = system: CCRF-CEM leukemia
# [54] = system: NCI-H23 lung
# [55] = system: RXF 393 renal
# [56] = system: NCI-H226 lung
# [57] = system: HL-60(TB) leukemia
# [58] = system: SK-MEL-28 melanoma
smiles,measurement,setting,value
CCCCNc1nc2nc[nH]c2c(=O)[nH]1,TGI,[1],> 100 µM
same,TGI,[2],> 100 µM
same,TGI,[3],> 100 µM
same,TGI,[4],> 100 µM
same,TGI,[5],> 100 µM
same,TGI,[6],> 100 µM
same,TGI,[7],> 100 µM
same,TGI,[8],> 100 µM
same,TGI,[9],> 100 µM
same,TGI,[10],> 100 µM
same,TGI,[11],> 100 µM
same,TGI,[12],> 100 µM
same,TGI,[13],> 100 µM
same,TGI,[14],> 100 µM
same,TGI,[15],> 100 µM
same,TGI,[16],> 100 µM
same,TGI,[17],> 100 µM
same,TGI,[18],> 100 µM
same,TGI,[19],> 100 µM
same,TGI,[20],> 100 µM
same,TGI,[21],> 100 µM
same,TGI,[22],> 100 µM
same,TGI,[23],> 100 µM
same,TGI,[24],> 100 µM
same,TGI,[25],> 100 µM
same,TGI,[26],> 100 µM
same,TGI,[27],> 100 µM
same,TGI,[28],> 100 µM
same,TGI,[29],> 100 µM
same,TGI,[30],> 100 µM
same,TGI,[31],> 100 µM
same,TGI,[32],> 100 µM
same,TGI,[33],> 100 µM
same,TGI,[34],> 100 µM
same,TGI,[35],> 100 µM
same,TGI,[36],> 100 µM
same,TGI,[37],> 100 µM
same,TGI,[38],> 100 µM
same,TGI,[39],> 100 µM
same,TGI,[40],> 100 µM
same,TGI,[41],> 100 µM
same,TGI,[42],> 100 µM
same,TGI,[43],> 100 µM
same,TGI,[44],> 100 µM
same,TGI,[45],> 100 µM
same,TGI,[46],> 100 µM
same,TGI,[47],> 100 µM
same,TGI,[48],> 100 µM
same,TGI,[49],> 100 µM
same,TGI,[50],> 100 µM
same,TGI,[51],> 100 µM
same,TGI,[52],> 100 µM
same,TGI,[53],> 100 µM
same,TGI,[54],> 100 µM
same,TGI,[55],> 100 µM
same,TGI,[56],> 100 µM
O=C(N/N=C(/COc1ccccc1Cl)N=Cc1cccnc1)c1ccncc1,TGI,[1],> 100 µM
same,TGI,[2],> 100 µM
same,TGI,[3],> 100 µM
same,TGI,[4],> 100 µM
same,TGI,[5],> 100 µM
same,TGI,[6],> 100 µM
same,TGI,[7],> 100 µM
same,TGI,[57],> 100 µM
same,TGI,[8],> 100 µM
same,TGI,[9],> 100 µM
same,TGI,[10],> 100 µM
same,TGI,[11],> 100 µM
same,TGI,[12],> 100 µM
same,TGI,[13],> 100 µM
same,TGI,[14],> 100 µM
same,TGI,[15],> 100 µM
same,TGI,[16],> 100 µM
same,TGI,[17],> 100 µM
same,TGI,[18],> 100 µM
same,TGI,[19],> 100 µM
same,TGI,[20],> 100 µM
same,TGI,[22],> 100 µM
same,TGI,[23],> 100 µM
same,TGI,[24],> 100 µM
same,TGI,[25],> 100 µM
same,TGI,[26],> 100 µM
same,TGI,[27],> 100 µM
same,TGI,[28],> 100 µM
same,TGI,[29],> 100 µM
same,TGI,[30],> 100 µM
same,TGI,[31],> 100 µM
same,TGI,[32],> 100 µM
same,TGI,[58],> 100 µM
same,TGI,[33],> 100 µM
same,TGI,[34],> 100 µM
same,TGI,[35],> 100 µM
same,TGI,[36],> 100 µM
same,TGI,[37],> 100 µM
same,TGI,[38],> 100 µM
same,TGI,[39],> 100 µM
same,TGI,[40],> 100 µM
same,TGI,[41],> 100 µM
same,TGI,[42],> 100 µM
same,TGI,[43],> 100 µM
same,TGI,[44],> 100 µM
same,TGI,[45],> 100 µM
same,TGI,[46],> 100 µM
same,TGI,[47],> 100 µM
same,TGI,[50],> 100 µM
same,TGI,[51],> 100 µM
same,TGI,[52],> 100 µM
same,TGI,[53],> 100 µM
same,TGI,[54],> 100 µM
same,TGI,[55],> 100 µM
same,TGI,[56],> 100 µM
N#C/C(=N/Nc1nc[nH]c1C(N)=O)C(=O)Nc1ccccc1,TGI,[1],> 100 µM
same,TGI,[2],> 100 µM
same,TGI,[3],> 100 µM
same,TGI,[4],> 100 µM
same,TGI,[5],> 100 µM
same,TGI,[6],> 100 µM
same,TGI,[7],> 100 µM
same,TGI,[57],> 100 µM
same,TGI,[8],> 100 µM
same,TGI,[9],> 100 µM
same,TGI,[10],> 100 µM
same,TGI,[11],> 100 µM
same,TGI,[12],> 100 µM
same,TGI,[13],> 100 µM
same,TGI,[14],> 100 µM
same,TGI,[15],> 100 µM
same,TGI,[16],89.6 µM
same,TGI,[17],> 100 µM
same,TGI,[18],> 100 µM
same,TGI,[20],> 100 µM
same,TGI,[21],> 100 µM
same,TGI,[22],> 100 µM
same,TGI,[23],> 100 µM
same,TGI,[25],> 100 µM
same,TGI,[27],> 100 µM
same,TGI,[28],> 100 µM
same,TGI,[29],> 100 µM
same,TGI,[30],> 100 µM
same,TGI,[31],> 100 µM
same,TGI,[32],> 100 µM
same,TGI,[58],> 100 µM
same,TGI,[33],> 100 µM
same,TGI,[34],> 100 µM
same,TGI,[35],> 100 µM
same,TGI,[36],> 100 µM
same,TGI,[37],> 100 µM
same,TGI,[38],> 100 µM
same,TGI,[40],> 100 µM
same,TGI,[41],> 100 µM
same,TGI,[42],> 100 µM
same,TGI,[43],> 100 µM
same,TGI,[44],> 100 µM
same,TGI,[45],> 100 µM
same,TGI,[46],> 100 µM
same,TGI,[47],> 100 µM
same,TGI,[49],> 100 µM
same,TGI,[50],> 100 µM
same,TGI,[51],45.7 µM
same,TGI,[52],> 100 µM
same,TGI,[53],> 100 µM
same,TGI,[54],> 100 µM
same,TGI,[55],> 100 µM
same,TGI,[56],> 100 µM
